This is an account of results in patent US20260263550A1, “METHODS AND COMPOSITIONS FOR TREATING, PREVENTING, INHIBITING, AMELIORATING OR DELAYING THE ONSET OF OPHTHALMIC CONDITIONS” (Stealth BioTherapeutics Inc., priority 2021, published 2026).

The test system of data set [1] is iPSC-derived RPE cells from AMD donors. As to the kind of experiment: Cell viability assay on nitrite-modified ECM (Real Time-Glo MT Cell Viability Assay). The format is cell-based, human. To be noted: 10, 100, 1000 nM; 24 hours; versus vehicle-treated cells; FIG. 8J, *p<0.05. The protocol: (§1) General. iPSC-derived RPE were generated from AMD patients (2 atrophic; 1 exudative) and patients with no history of AMD (n=3). To test the therapeutic efficacy of elamipretide and compound of Formula IIa, cell viability was analyzed on nitrite-modified extracellular matrix (ECM), a typical modification of aged Bruch's membrane, for 24 hrs. DNA microarrays were used to elucidate gene expression in AMD-derived RPE cultured on nitrite-modified ECM.
Preparation of RPE cell-derived ECM and nitrite-modified ECM RPE cell-derived ECM plates were prepared from ARPE-19 cells as described in Wang et al., Curr Eye Res. 30:691-702 (2005); Fields et al. (2017); and Moreira et al., Transl Vis Sci Technol. 4:10 (2015). ECM on 96-well plates were used to create two experimental plating surfaces (nontreated ECM and nitrite-modified ECM). Nitrite-modified ECM was prepared by adding 100 mM sodium nitrite to ECM followed by incubation at 37° C. for 7 days. Plates were then washed with DPBS and incubated with DPBS for 4 hours to completely remove the nitrite. […]
Cell viability was measured by Real Time-Glo MT Cell Viability Assay (Promega, Madison, WI, www.promega.com) according to the manufacturer's protocol. […] Luminescent signals were acquired using a BioTek FLx800 plate reader (BioTek).

A short description of data set [2]: Uptake in plasma and compartments of the eye in a rabbit model (subcutaneous or topical ocular dosing). The format is in vivo, Dutch Belted Rabbits. To be noted: in vivo. The protocol: 3 mg/mL elamipretide or compound of Formula IIa in saline was dosed subcutaneously at 1.5 mg/kg. A 3 mg/mL elamipretide or compound of Formula IIa formulation was prepared by dissolving 81 mg elamipretide in a total volume of 27 mL of sterile saline and mixing well. • (ii) Groups 2 & 4: Topical Ocular Formulation for administration of elamipretide or compound of Formula IIa
For each preparation (i.e., elamipretide or compound of Formula IIa, sodium chloride (105 mg) was dissolved in 16 mL of water for injection with mixing. With mixing, 82.8 mg of sodium phosphate monobasic, monohydrate was then added. With mixing, 0.400 mL of a 5 mg/mL benzalkonium chloride solution in water (to be prepared by diluting 0.100 mL of a 50% benzalkonium chloride solution in water to 10 mL with water for injection) was then added. Two hundred (200) mg of elamipretide or compound of Formula IIa was then added with mixing and the formulation pH was adjusted to 5.8 (+/−0.1) with 1 M sodium hydroxide in water solution. The final volume of the formulation was then be brought to 20 mL using water for injection. Each formulation (elamipretide or compound of Formula IIa) was used for topical ocular administration at a dose of 50 μL/eye OU.
A total of 48 male Dutch Belted Rabbits were used in the study. Each animal was approximately 2 kg.
For subcutaneous administration, rabbits were dosed via a single subcutaneous injection of 1.5 mg/kg and at the scruff of the neck between the shoulder blades using a syringe with an attached 27G×½ inch needle (or similar). The site of injection was checked to ensure no leakage of dose immediately following administration.
For topical administration, a calibrated Gilson positive displacement pipette was used to administer 50 μL of formulation onto the globe the eye while the lower eyelid was pulled away from the globe. Administration was twice daily (i.e., BID). Doses were administered to both eyes, every 8 to 12 hours for 11 total doses.
Terminal blood samples (approximately 6 mL) were collected from two animals/group/timepoint via the central ear artery at approximately 0.5, 1, 2, 4, 8, and 24 hours postdose. Blood samples were collected into tubes containing K2EDTA as the anticoagulant and inverted several times to ensure adequate mixing of blood and anticoagulant and placed on ice. Within 30 min of collection, samples were centrifuged to harvest plasma and stored at −80° C. until analyzed.
Following blood collection, designated animals were euthanized by barbiturate overdose. Following euthanasia, both eyes of each rabbit were harvested and dissected for collection of ocular tissue and fluid. Optic nerve and retina were collected from Group 1 and 3 animals, and aqueous humor, retina, conjunctiva, cornea, sclera, and optic nerve were collected from Group 2 and 4 animals. Following dissection, all fluids and tissues were placed in pre-tared tubes, weight collected, and then flash frozen on dry ice and placed in a freezer at −80° C. or lower until analyzed. Concentrations of test article in plasma in the ocular tissues (ng/g tissue) and fluids (ng/mL fluid) were determined utilizing a method previously developed by the CRO.

Data set [3] relates to iPSC-derived RPE cells from AMD donors. Kind of data set: Microarray analysis of gene expression on in vitro Bruch's membrane model. The format is cell-based, human. To be noted: AMD-derived RPE on nitrite-modified ECM, 10, 100, 1000 nM, 24 hours. The protocol:
as §1
Microarray analysis. iPSC-derived RPE cells from AMD donors (n=3; 2 atrophic with GA, 1 exudative) were treated with drug (elamipretide or compound of Formula IIa) as described below and cultured on an in vitro Bruch's membrane model for 24 hours.
• AMD donors only (n=3 individual donors) • Cells treated with elamipretide (also referred to as “309” in the figures) at 10 nM, 100 nM and 1000 nM • Cells treated with compound of Formula IIa (also referred to as “146c” in the figures) at 10 nM, 100 nM, 1000 nM
Microarray studies using Affymetrix GeneChip Human Clariom™ S Assay were performed as described in Gong et al. (2020).

As to `Cc1cc(O)cc(C)c1C[C@H](NC(=O)[C@H](N)CCCNC(=N)N)C(=O)N[C@@H](CCCCN)c1nc(Cc2ccccc2)no1.Cl.Cl.Cl` [Formula IIa, (R)-2-amino-N—((S)-1-(((S)-5-amino-1-(3-benzyl-1,2,4-oxadiazol-5-yl)pentyl)amino)-3-(4-hydroxy-2,6-dimethylphenyl)-1-oxopropan-2-yl)-5-guanidinopentanamide], the “AMD-derived RPE cell viability on nitrite-modified ECM” value in data set [1] is listed as “significantly enhanced”. Moreover, in data set [2], the “accumulation in eye tissues (retina, conjunctiva, cornea, aqueous humor, optic nerve head) compared with elamipretide” value is on record as “higher concentration” and the “concentration in the eye tissue examined compared with elamipretide (conjunctiva, cornea, aqueous humor, optical nerve head)” value was “higher”. In addition, in data set [2] (1.5 mg/kg), the “concentration in plasma, elamipretide compared with compound of Formula IIa” value is on record as “roughly equivalent”. Besides, the “expression of complement regulatory genes including CFHR2” value in data set [3] (FIG. 8S) was “increase expression”. The “expression of complement component genes (C1R, C3, C4A) increased by nitration of ECM” value in data set [3] (FIGS. 8L-8P) is recorded as “reverse this trend”. In addition, in data set [3] (FIGS. 8W-8Z), the “expression of mitochondrial-related genes, such as CYP24A1 and GLS” value is listed as “altered the expression”.
